In patent US6914158B2, “Amidino compounds useful as nitric oxide synthase inhibitors” (Pharmacia Corporation, priority 2000, dated 2005):
Counter-ions that a name gives are not always drawn.

Target: T1, iNOS in human cartilage explants (Homo sapiens, UniProt P35228)
T1 construct: from tissue; host or cells: human cartilage explants stimulated with recombinant human IL-1β
Assay: Human cartilage explant assay (IL-1β-induced nitrite production)
Format: cell-based
Conditions: inhibition of nitrite production, IL-1β-stimulated explants; averages across all experiments and all lots

IC50	Compound
700 nM	CC(=N)NCCSC[C@](C)(N)C(=O)O [Example 1, S-[2-[(1-Iminoethyl)amino]ethyl]-2-methyl-L-cysteine, dihydrochloride]
700 nM	CC(=N)NCCSCC(C)(N)C(=O)O (stereo not drawn) [Example 16, S-[2-(1-Iminoethylamino)ethyl]-2-methyl-(D/L)-cysteine, bistrifluoroacetate]
